The structures appear in SMILES notation.

Series [1] has as its system Co-26 murine colon cancer cells. The series is described as follows: Antitumor effect in Co-26 liver metastasis model. Particulars: single dose 75 mg/kg. The class given is in vivo. Here is the method: Antitumor effect of single dose of gemcitabine-5′-elaidic acid ester or gemcitabine is tested in Balb/C female mice injected with Co-26 murine colon cancer cells in the spleen (a liver metastasis model). […] The activity of gemcitabine is similar.

The subject of series [2] is human glioma cells U373. Put plainly: Antitumor activity in human glioma xenograft model U373 (subcutaneous). The class given is in vivo. The settings on record: NCR mice, intraperitoneal. An excerpt: NCR mice are inoculated subcutaneously on Day 0 with human glioma cells U373. Treatment (intraperitoneal) starts on Day 7, either every third day or weekly.
For orientation: A xenograft is tissue or cells of one species grown in another, often human tumour cells in immunodeficient mice.

Another series concerns WiDr cell line. The series is described as follows: Platinum accumulation in DNA (WiDr). The class given is cell-based, human. The settings on record: oxaliplatin 200 μM combined with Gemcitabine-5′-elaidate 0.004 μM. Here is the method:
The effect on DNA platinum accumulation in DNA after exposure to oxaliplatin and oxaliplatin combined with Gemcitabine-5′-elaidate (oxaliplatin [200 μM] combined with Gemcitabine-5′-elaidate [0.004 μM]) is also determined.

A further series deals with CEM cells. Put plainly: Intracellular dFdCTP level in CEM cells with or without dipyridamole (HPLC). The class given is cell-based, human. Here is the method: hENT1 can inhibited in vitro by various agents including dipyridamole, NBMPR, and NBI. In order to test whether gemcitabine-5′-elaidate entry into the cells is independent of a nucleoside transporter such as hENT1, dipyridamole is used to block hENT1. The intracellular level of dFdCTP is determined in CEM cells after 60 minutes exposure to either dFdC or gemcitabine-5′-elaidate, with or without the addition of dipyridamole (DP). The compounds are administered at 10 μM, and the triphosphates are determined using HPLC. Deamination is blocked using tetrahydrouridine.

A further series has as its system WiDr-LF cell line. Put plainly: Combination with pemetrexed under low folate conditions (WiDr-LF). The class given is cell-based, human. The settings on record: MTT assay. As for the experimental part:
The cell lines A549 human NSCLC and WiDr human colon carcinoma are used to determine the combination index and also the effect of Gemcitabine-5′-elaidate on the cell cycle. A sulforhodamine B colorimetric assay is used to determine growth inhibition after 72 hours. Pemetrexed combinations are tested using the MTT assay. Combinations with pemetrexed are also tested in the WiDr-LF cell line, which are WiDr cells cultured under low folate conditions. The IC25 and IC50 values (inhibitory concentrations at 25% or 50%, respectively) are calculated. The IC25 value is used for combinations with serial dilutions of oxaliplatin or docetaxel, and the IC50 value is used for pemetrexed combinations. Median effect analysis is performed.

For the next series, the system named is pancreatic cancer. The series is described as follows: Treatment of a pancreatic cancer patient with low hENT1 expression. The class given is in vivo, human. As for the experimental part:
An individual is diagnosed with pancreatic cancer. The patient provides a sample. The sample contains cancerous cells from the patient. The sample comes from a biopsy of the tumor, from circulating tumor cells, or from another source.
The sample is tested to determine the level of expression of hENT1 or another nucleoside transporter. The level is detected by immunohistochemistry, by determining the amount of mRNA relevant to hENT1 in the sample, or by other known means.
The testing of the sample takes place at a testing facility. The physician or their staff ships the sample to this facility. The sample is fixed or frozen for shipment. The sample is mixed with an antibody prior to shipment and analyzed when it arrives at the facility or the sample is shipped with no antibody added prior to shipment.
The nucleoside transporter level is compared to a control. The control is non-cancerous cells from the patient or is samples from another population. The control samples are analyzed at the same time as the sample or the analysis is based upon computer stored data where the comparison is done by using a rule based upon previously collected and characterized control data. This comparison allows for the classification of the sample as a “high,” “low,” or “normal,” sample based upon nucleoside transporter levels. […]

Series [3] concerns human glioma cells U373. The series is described as follows: Antitumor activity in human glioma U373 grown intracerebrally. The class given is in vivo. Here is the method: NMRI male mice are inoculated with human glioma cells U373 intracerebrally. The tumors at the injection site (at the surface of the brain), as well as the intracerebral tumors, are evaluated. Gemcitabine-5′-elaidic acid ester is administered intraperitoneally on Days 4-8, 11-15, 18-22, and 25-29 and is active at 4 mg/kg per injection.

Series [4] has as its system human colon cancer Co5776. Put plainly: Antitumor activity in human colon xenograft Co5776. The class given is in vivo. As for the experimental part:
Fragments of human colon cancers Co5776 and Co6044 are implanted subcutaneously in NCR female mice (7-8 mice/group). Gemcitabine (120 mg/kg) and gemcitabine-5′-elaidic acid ester (40 mg/kg) are administered intraperitoneally, every third day for five times.
NCr female mice implanted subcutaneously with human colon carcinoma fragments, Co5776, are treated intraperitoneally. Two different schedules of gemcitabine-5′-elaidic acid ester are administered, once weekly times 2 (Days 11 and 18), and every third day times 5 (Days 11, 14, 17, 20, and 23). Antitumor activity of gemcitabine-5′-elaidic acid ester is similar for 150 mg/kg once weekly, administered twice or 40 mg/kg every third day administered five times.

With `CCCCCCCC/C=C/CCCCCCCC(=O)OC[C@H]1O[C@@H](n2ccc(N)nc2=O)C(F)(F)[C@@H]1O` [gemcitabine-5′-elaidic acid ester], the antitumor activity entry in series [1] (Balb/C female mice, Co-26 cells in the spleen) was “significant antitumor activity”; in the series with human glioma cells U373 [3] (NMRI male mice, U373 intracerebrally, intraperitoneally Days 4-8, 11-15, 18-22, 25-29, 4 mg/kg per injection), “active”. The hematological parameters result in series [1] was “moderate reduction”. Moreover, the “mean survival in days and Treated/Control (T/C, %) over saline control” value in series [1] is given as “significant increase”. Also, the “antitumor effect compared with gemcitabine” value in the series on human glioma cells U373 [2] (dosed Days 7 and 14 (weekly)) was “better than that of gemcitabine”; in the series on human glioma cells U373 [2] (every third day schedule from Day 7), “equal to gemcitabine”. The “platinum adducts in DNA, oxaliplatin combined vs oxaliplatin alone” value in the series with WiDr cell line is given as “increase of platinum adducts”. Moreover, the “dFdCTP levels with inhibitor (DP) compared to without inhibitor” value in the series with CEM cells (10 μM) was “even increased”. The “time of maximum dFdCTP concentration” value in the series on CEM cells (10 μM, after exposure) was “reached at the last time point measured”. Also, the “dFdCTP accumulation with blocked nucleoside transporters (FIG. 3)” value in the series with CEM cells (transporters blocked) is reported as “accumulates in cells despite blocking transporters”. Further, in the series on WiDr-LF cell line, the “antagonistic activity of combination with pemetrexed under low folate conditions” value was “slightly reduced”. Also, the response to treatment result in the series on pancreatic cancer is reported as “responds favorably”. In addition, the activity intracerebrally entry in the series with human glioma cells U373 [3] (after intraperitoneal administration) is “active intracerebrally”. Besides, the “activity compared with gemcitabine” value in series [4] (40 mg/kg vs gemcitabine 120 mg/kg, intraperitoneally every third day five times) is “similar”. Also, the antitumor effect entry in series [4] (NCR female mice, intraperitoneally every third day five times, gemcitabine 120 mg/kg, gemcitabine-5′-elaidic acid ester 40 mg/kg) is “Significant antitumor effect”. Further, the “antitumor activity, comparison of schedules” value in series [4] (NCr female mice, intraperitoneal, 150 mg/kg once weekly times 2 vs 40 mg/kg every third day times 5) was “similar”.
